Data published in the NIST ThermoML archive (doi:10.1016/j.jct.2009.06.020).

Legend:
[1] = for speed of sound / mass density / viscosity: 101.33 kPa, Liquid; for speed of sound: Single path-length method; for mass density: Vibrating tube method; for viscosity: Capillary tube (Ostwald / Ubbelohde) method
[2] = isobaric coefficient of expansion; conditions: 298.15 K; 101.33 kPa; Liquid; Curve Fitting Density Data
[3] = refractive index (Na D-line) (dimensionless); conditions: 101.33 kPa, Liquid, Standard Abbe refractometry

CCCC[N+]1(C)CCCC1.O=S(=O)([N-]S(=O)(=O)C(F)(F)F)C(F)(F)F
Conditions	mass density, [1] [kg/m3]	refractive index, [3]	speed of sound, [1] [m/s]	viscosity, [1] [mPa·s]
278.15 K	1412.36	–	1316	–
283.15 K	1407.86	1.42717	1303	–
288.15 K	1403.45	1.42573	1291	–
293.15 K	1399.02	1.4243	1280	98.07
298.15 K	1394.59	1.42304	1269	76.92
303.15 K	1390.2	1.42164	1258	61.47
308.15 K	1385.8	1.42021	1247	49.94
313.15 K	1381.42	1.41878	1236	41.22
318.15 K	1377.04	1.41736	1225	34.32
323.15 K	1372.69	1.41588	1214	28.95
328.15 K	1368.35	1.41447	1204	24.68
333.15 K	1364.02	1.413	1193	21.23
338.15 K	1359.71	1.4116	1183	18.42
343.15 K	1355.41	1.4102	1173	16.12

Conditions	Normal melting temperature [°C]
[1], Crystal, visual observation	-8.00

Conditions	isobaric coefficient of expansion
[2]	0.000633 1/K

CCCCCCCCCCCCCC[P+](CCCCCC)(CCCCCC)CCCCCC.N#C[N-]C#N [tetradecyl(trihexyl)phosphonium dicyanamide]
Conditions	mass density, [1] [kg/m3]	refractive index, [3]	speed of sound, [1] [m/s]	viscosity, [1] [mPa·s]
278.15 K	910.72	–	1599	–
283.15 K	907.58	1.48826	1579	–
288.15 K	904.66	1.48667	1561	–
293.15 K	901.76	1.48502	1542	562.45
298.15 K	898.86	1.48337	1526	418.33
303.15 K	895.98	1.48174	1509	312.69
308.15 K	893.09	1.48008	1493	239.97
313.15 K	890.26	1.47843	1477	186.79
318.15 K	887.46	1.47679	1462	145.95
323.15 K	884.65	1.47516	1447	116.18
328.15 K	881.83	1.47352	1432	93.8
333.15 K	879.03	1.47189	1418	76.14
338.15 K	876.22	1.47024	1404	62.63
343.15 K	873.42	1.46848	1390	51.99

Conditions	isobaric coefficient of expansion
[2]	0.000642 1/K
